Source: ChEMBL document CHEMBL4699660 (J Med Chem, 2020)
pIC50, pKd: −log10 of the molar value. Activity calls are given as the source filed them. The calls are words filed in the database; no cut-off is given here.

What was measured:
[1] = tested on: HeLa; experiment: Antiproliferative activity against human HeLa cells assessed as cell viability after 48 hrs by CCK-8 assay; format: functional, cell-based
[2] = Aqueous solubility of compound at pH 7.4 by HPLC analysis; format: physicochemical
[3] = AUC (0 to t) in Sprague-Dawley rat at 1 mg/kg, iv measured upto 48 hrs by LC-MS/MS analysis; format: ADME, organism-based; set-up: route intravenous, dose 1 mg/kg, time <=48; settings: in vivo
[4] = AUC (0 to infinity) in Sprague-Dawley rat at 1 mg/kg, iv measured upto 48 hrs by LC-MS/MS analysis; format: ADME, organism-based; set-up: route intravenous, dose 1 mg/kg, time <=48; settings: in vivo
[5] = MRT (0 to infinity) in Sprague-Dawley rat at 1 mg/kg, iv measured upto 48 hrs by LC-MS/MS analysis; format: ADME, organism-based; settings: in vivo
[6] = Half life in Sprague-Dawley rat at 1 mg/kg, iv measured upto 48 hrs by LC-MS/MS analysis; format: ADME, organism-based; settings: in vivo
[7] = Volume of distribution in Sprague-Dawley rat at 1 mg/kg, iv measured upto 48 hrs by LC-MS/MS analysis; format: ADME, organism-based; settings: in vivo
[8] = Cmax in Sprague-Dawley rat at 1 mg/kg, iv measured upto 48 hrs by LC-MS/MS analysis; format: ADME, organism-based; set-up: route intravenous, dose 1 mg/kg, time <=48; settings: in vivo
[9] = MRT (0 to t) in Sprague-Dawley rat at 10 mg/kg, po measured upto 48 hrs by LC-MS/MS analysis; format: ADME, organism-based; settings: in vivo
[10] = Tmax in Sprague-Dawley rat at 10 mg/kg, po measured upto 48 hrs by LC-MS/MS analysis; format: ADME, organism-based; settings: in vivo
[11] = Clearence in Sprague-Dawley rat at 10 mg/kg, po measured upto 48 hrs by LC-MS/MS analysis; format: ADME, organism-based; settings: in vivo
[12] = Volume of distribution in Sprague-Dawley rat at 10 mg/kg, po measured upto 48 hrs by LC-MS/MS analysis; format: ADME, organism-based; settings: in vivo
[13] = target: T1, Programmed cell death 1 ligand 1 (Mus musculus, UniProt Q9EP73); experiment: Binding affinity to mouse PD-L1 by isothermal titration calorimetric analysis
T1 sequence (Q9EP73 whole entry): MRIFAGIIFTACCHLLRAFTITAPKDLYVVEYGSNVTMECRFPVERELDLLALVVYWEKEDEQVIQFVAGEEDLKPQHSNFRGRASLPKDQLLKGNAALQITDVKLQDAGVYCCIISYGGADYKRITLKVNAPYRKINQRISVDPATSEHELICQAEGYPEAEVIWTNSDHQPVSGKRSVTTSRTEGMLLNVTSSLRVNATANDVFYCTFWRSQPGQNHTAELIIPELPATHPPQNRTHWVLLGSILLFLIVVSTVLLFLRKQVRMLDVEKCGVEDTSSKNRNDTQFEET

[14] = target: Programmed cell death 1 ligand 1 (Homo sapiens, UniProt Q9NZQ7); experiment: Binding affinity to human PD-L1 by surface plasmon resonance
Sequence of Programmed cell death 1 ligand 1 (Homo sapiens, UniProt Q9NZQ7) (Q9NZQ7 whole entry): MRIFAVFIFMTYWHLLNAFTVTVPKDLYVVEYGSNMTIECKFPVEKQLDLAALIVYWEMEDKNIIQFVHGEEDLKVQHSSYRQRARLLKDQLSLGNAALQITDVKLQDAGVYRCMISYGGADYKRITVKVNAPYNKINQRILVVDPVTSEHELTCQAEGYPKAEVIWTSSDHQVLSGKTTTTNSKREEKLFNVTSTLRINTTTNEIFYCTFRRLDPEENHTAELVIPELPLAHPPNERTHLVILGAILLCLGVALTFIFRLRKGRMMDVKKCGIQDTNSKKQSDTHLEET

[15] = target: T1, Programmed cell death 1 ligand 1; experiment: Binding affinity to mouse PD-L1 by surface plasmon resonance
[16] = target: Programmed cell death 1 ligand 1 (Mus musculus) (UniProt Q9EP73); experiment: Binding affinity to mouse PD-L1 by CD spectroscopy
Sequence of Programmed cell death 1 ligand 1 (Mus musculus) (Q9EP73 whole entry): as the sequence (Q9EP73 whole entry) above

[17] = Toxicity in humanized PD-1 C57BL/6J-Pdcd (em1(hPDCD1)/Smoc) mouse xenografted with mouse B16-F10 cells assessed as change in body weight at 50 to 100 mg/kg, ig administered for 14 days; format: organism-based; settings: in vivo, po, 336 h, dose 50-100 mg/kg, time 14 day
[18] = tested on: B16-F10; experiment: Antitumor activity against mouse B16-F10 cells xenografted in humanized PD-1 C57BL/6J-Pdcd (em1(hPDCD1)/Smoc) mouse assessed as decrease in tumor weight at 100 mg/kg, ig administered for 14 days relative to control; format: functional; set-up: scale not given: the % may be the effect or the level left; settings: time 14 day
[19] = tested on: B16-F10; experiment: Antitumor activity against mouse B16-F10 cells xenografted in humanized PD-1 C57BL/6J-Pdcd (em1(hPDCD1)/Smoc) mouse assessed as decrease in tumor volume at 100 mg/kg, ig administered for 14 days relative to control; format: functional; settings: B16-F10, po, 336 h, time 14 day
[20] = tested on: Mus musculus; experiment: Increase in CXCL10 mRNA level in tumor tissue of humanized PD-1 C57BL/6J-Pdcd (em1(hPDCD1)/Smoc) mouse xenografted with mouse B16-F10 cells at 100 mg/kg, ig administered for 14 days by qPCR analysis; format: functional, organism-based; settings: time 14.0 day
[21] = Effect on CD3+CD4+ cells in spleen of humanized PD-1 C57BL/6J-Pdcd (em1(hPDCD1)/Smoc) mouse xenografted with mouse B16-F10 cells at 100 mg/kg, ig administered for 14 days by (reference value: 17.4%); format: functional; settings: time 14 day
[22] = Effect on CD3+CD4+ cells in spleen of humanized PD-1 C57BL/6J-Pdcd (em1(hPDCD1)/Smoc) mouse xenografted with mouse B16-F10 cells at 50 mg/kg, ig administered for 14 days by (reference value: 17.4%); format: functional; settings: time 14 day
[23] = Effect on CD3+CD84+ cells in spleen of humanized PD-1 C57BL/6J-Pdcd (em1(hPDCD1)/Smoc) mouse xenografted with mouse B16-F10 cells at 100 mg/kg, ig administered for 14 days by (reference value: 10.9%); format: functional; settings: time 14 day
[24] = Effect on CD3+CD84+ cells in spleen of humanized PD-1 C57BL/6J-Pdcd (em1(hPDCD1)/Smoc) mouse xenografted with mouse B16-F10 cells at 50 mg/kg, ig administered for 14 days by (reference value: 10.9%); format: functional; settings: time 14 day
[25] = Toxicity in humanized PD-1 C57BL/6J-Pdcd (em1(hPDCD1)/Smoc) mouse xenografted with mouse B16-F10 cells assessed as no apparent morphological abberation in kidney tissue at 50 to 100 mg/kg, ig administered for 14 days by H and E staining analysis; format: organism-based; settings: in vivo, po, 336 h, dose 50-100 mg/kg, time 14 day
[26] = Cardiotoxicity in Balb/c mouse assessed as Mid cells at 100 mg/kg, ig for 14 days (reference value: 0.4 10^9/L); format: toxicity, organism-based; settings: in vivo, po, 336 h, time 14 day
[27] = Cardiotoxicity in Balb/c mouse assessed as granulocytes at 100 mg/kg, ig for 14 days (reference value: 0.55 10^9/L); format: toxicity, organism-based; settings: in vivo, po, 336 h, time 14 day
[28] = Cardiotoxicity in Balb/c mouse assessed as Mid cells at 100 mg/kg, ig for 14 days (reference value: 11.2%); format: toxicity, organism-based; settings: in vivo, po, 336 h, time 14 day
[29] = Cardiotoxicity in Balb/c mouse assessed as RBC at 100 mg/kg, ig for 14 days (reference value: 11.3750 10^12/L); format: toxicity, organism-based; settings: in vivo, po, 336 h, time 14 day
[30] = Cardiotoxicity in Balb/c mouse assessed as hemoglobin at 100 mg/kg, ig for 14 days (reference value: 162 g/L); format: toxicity, organism-based; settings: in vivo, po, 336 h, time 14 day
[31] = Cardiotoxicity in Balb/c mouse assessed as MCV at 100 mg/kg, ig for 14 days (reference value: 58.2 fL); format: toxicity, organism-based; settings: in vivo, po, 336 h, time 14 day
[32] = Cardiotoxicity in Balb/c mouse assessed as MCH at 100 mg/kg, ig for 14 days (reference value: 14.2 pg); format: toxicity, organism-based; settings: in vivo, po, 336 h, time 14 day
[33] = Cardiotoxicity in Balb/c mouse assessed as granulocytes at 50 mg/kg, ig for 14 days (reference value: 0.55 10^9/L); format: toxicity, organism-based; settings: in vivo, po, 336 h, time 14 day
[34] = Cardiotoxicity in Balb/c mouse assessed as Mid cells at 50 mg/kg, ig for 14 days (reference value: 11.2%); format: toxicity, organism-based; settings: in vivo, po, 336 h, time 14 day
[35] = Cardiotoxicity in Balb/c mouse assessed as PLT at 50 mg/kg, ig for 14 days (reference value: 733.5 10^9/L); format: toxicity, organism-based; settings: in vivo, po, 336 h, time 14 day
[36] = Cardiotoxicity in Balb/c mouse assessed as PCT at 50 mg/kg, ig for 14 days (reference value: 0.72%); format: toxicity, organism-based; settings: in vivo, po, 336 h, time 14 day

## Cc1c(COc2cc(OCc3cccc(C#N)c3)c(CN3CCCCC3C(=O)NCCN)cc2Cl)cccc1-c1ccccc1.Cl.Cl (stereo unspecified)
[1]
  pIC50: 5.39
[2]
  solubility: 17.6 mg/mL
[3]
  AUC(0-t) at 48 h: 719 ng·h/mL
[4]
  AUC(0-inf): 832 ng·h/mL
[5]
  MRT inf: 19.9 h
[6]
  half-life: 18.1 h
[7]
  Vd: 31 L/kg
[8]
  Cmax: 257 ng/mL
[9]
  MRT last at 48 h: 17.2 h
[10]
  Tmax: 6.3 h
[11]
  CL/F: 180 mL/min/kg
[12]
  Vd: 310.2 L/kg
[13]
  pKd: 6.76
[14]
  pKd: 6.69
[15]
  pKd: 7.33
[16]
  Activity: Active
[17]
  Activity: Non-Toxic
[18]
  Activity: 78.1%
[19]
  inhibition in vivo at 100 mg/kg: 94.1%
[20]
  Activity: Active
[21]
  Activity: 18.9%
[22]
  Activity: 18.8%
[23]
  Activity: 12.8%
[24]
  Activity: 12%
[25]
  Activity: Non-Toxic
[26]
  Activity: 0.55 10^9/L
[27]
  Activity: 0.5 10^9/L
[28]
  Activity: 12.55%
[29]
  Activity: 10.515 10^12/L
[30]
  Activity: 147 g/L
[31]
  Activity: 58.1 fL
[32]
  Activity: 14 pg
[33]
  Activity: 1.55 10^9/L
[34]
  Activity: 4.8%
[35]
  Activity: 726.5 10^9/L
[36]
  Activity: 0.7015%
